Assay results taken from US20210274784A1, “HERBICIDAL MIXTURES COMPRISING ISOXAFLUTOLE, SAFLUFENACIL AND AN IMIDAZOLINONE HERBICIDE; AND THEIR USE IN SOYBEAN AND COTTON CULTURES” (BASF SE, priority 2018, published 2021).

Test system: ALOMY (Alopecurus myosuroides, Blackgrass)
Assay: post-emergence greenhouse experiment, herbicidal action (scale 0 to 100)
Type: in vivo
Settings: test period 20 days
Description: The culture containers used were plastic flowerpots containing loamy sand with approximately 3.0% of humus as the substrate. The seeds of the test plants were sown separately for each species. For pre-emergence treatment, the active ingredients, which had been suspended or emulsified in water, were applied directly after sowing by means of finely distributing nozzles. The containers were irrigated gently to promote germination and growth and subsequently covered with transparent plastic hoods until the plants had rooted. This cover caused uniform germination of the test plants, unless this had been impaired by the active ingredients. For post-emergence treatment, the test plants were first grown to a height of 3 to 32 cm, depending on the plant habit, and only then treated with the active ingredients which had been suspended or emulsified in water. For this purpose, the test plants were either sown directly and grown in the same containers, or they were first grown separately as seedlings and transplanted into the test containers a few days prior to treatment. Depending on the species, the plants were kept at 10-25° C. or 20-35° C., respectively. The test period extended over 20 days. During this time, the plants were tended, and their response to the individual treatments was evaluated. The evaluation was carried out by using a scale from 0 to 100. […]

## CS(=O)(=O)c1cc(C(F)(F)F)ccc1C(=O)c1cnoc1C1CC1 [Isoxaflutole, isoxaflutole]
Growth stage 11, Isoxaflutole 3.125 g/ha alone
  Herbicidal action against ALOMY, Found: 0
Growth stage 11, Isoxaflutole 6.25 g/ha alone
  Herbicidal action against ALOMY, Found: 0
